Literature values in patent publication US8580318B2, “Natural water soluble extracts for the inhibition of alpha-1-adrenergic receptors” (Naturamed Ltd., priority 2007, dated 2013).

System: serum prostate specific antigen (PSA)
Settings: patients with BPH

## CC(C)(C)NC(=O)[C@H]1CC[C@H]2[C@@H]3CC[C@H]4NC(=O)C=C[C@]4(C)[C@H]3CC[C@]12C [finasteride, Finasteride]
  decrease in serum prostate specific antigen (PSA) levels: approximately 50%
